Assays:
Parameters in all cases: key: “+” indicates that the compound exibits inhibitory activity; “−” indicates that low or no inhibitory activity was observed
HeLa cells = assay: Cell proliferation assay, photographic image analysis of proliferation, apoptosis and death (PAD assay), HeLa; format: cell-based; conditions: 6 concentrations tested
Procedure: (§1) A549 (ATCC# CCL-185), HeLa (ATCC# CCL-2), HCT116 (ATCC# CCL-247), and H1299 (ATCC# CRL-5803) cells were maintained in T175 flasks following the ATCC recommended media and handling procedures. Flasks reaching approximately 70% confluency were trypsinized and resuspended in RPMI media (Cell-Gro catalog number 10-040-CM) modified to contain 5% FBS, 100 ug/mlPen/Strep (Cell-Gro catalog number 30-002-CL), and 0.3 mg/ml L-Glutamine (Cell-Gro catalog number 25-003-CL). A 20,000 cells/ml solution was made for plating. Cells were plated in black Packard 96 well plates by placing 100 μl per well (2,000 cells per well).
(§2) Compounds and additional media were added 24 hours after cell plating. A compound master plate was created with concentrations 500 times greater than the final concentration added to the cells. All compound testing was done in duplicate using 6.3 fold dilutions starting with 10 mM. All outside wells (and 4 internal wells) were DMSO controls. Taxol and at least one additional control were run on all plates. Three microliters of the compound master plate were added to deep well blocks containing 750 μl of RPMI media. One hundred microliters were transferred from the compound/media deep well blocks to the plated cells resulting in a 500 fold dilution of the compounds. Cells were grown at 37° C., 5% CO2 for 48 hours.
(§3) Cells to be analyzed by photography were fixed and stained. One hundred microliters of media were removed and 100 μl of 9.3% […] was added to each well. Plates were left on the benchtop for 45 minutes. A staining solution containing 1.55 μl of 1 mg/ml DAPI added to 18.75 ml PBS was warmed for 15 minutes at 37° C. The cells were aspirated prior to washing with 100 μl of PBS. Seventy microliters of PBS were aspirated and 170 μl of the DAPI solution were added to each well of fixed cells. Plates were left at room temperature for one hour then aspirated and washed twice with 100 μl of PBS. The stained cells were left at 4° C. for a minimum of 16 hours before photographic analysis with Array Scan II (Cellomics). Analysis of the photographic images to determine numbers of live cells (proliferation), apoptotic cells and dead cells, were according to the methods described in U.S. Provisional Patent Application Ser. No. 60/406,714, which incorporated herein in its entirety.

[1] = target: E3 (His-APC11/APC2-"APC") (Homo sapiens, UniProt Q9NYG5+Q9UJX6); assay: Plate-based E3 ligase assay (APC FLAG), auto-ubiquitination; format: biochemical; conditions: for APC Flag 8 pt: 8 concentrations tested
Summary of the method: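 His-APC11/APC2 auto-ubiquitination was run in casein-blocked nickel plates for 1 h at room temperature, with E1 at 5 ng/well, UbcH5c at 20 ng/well and APC at 100 ng/well. Buffer was 62.5 mM Tris pH 7.6, 3 mM MgCl2, 1 mM DTT, 2.5 mM ATP and Flag-ubiquitin at 100 ng/well. Detection used anti-Flag/HRP chemiluminescence, and IC50 was typically from 6 or 8 concentrations versus a DMSO control.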

A549 cells = assay: Cell proliferation assay, photographic image analysis of proliferation, apoptosis and death (PAD assay), A549; format: cell-based; conditions: 6 concentrations tested
Procedure: as §1, §2, §3

Chain of E3 (His-APC11/APC2-"APC") (Q9NYG5 whole entry): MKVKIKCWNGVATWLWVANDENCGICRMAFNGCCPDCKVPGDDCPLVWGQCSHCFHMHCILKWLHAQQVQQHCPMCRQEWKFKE
Chain of E3 (His-APC11/APC2-"APC") (Q9UJX6 whole entry): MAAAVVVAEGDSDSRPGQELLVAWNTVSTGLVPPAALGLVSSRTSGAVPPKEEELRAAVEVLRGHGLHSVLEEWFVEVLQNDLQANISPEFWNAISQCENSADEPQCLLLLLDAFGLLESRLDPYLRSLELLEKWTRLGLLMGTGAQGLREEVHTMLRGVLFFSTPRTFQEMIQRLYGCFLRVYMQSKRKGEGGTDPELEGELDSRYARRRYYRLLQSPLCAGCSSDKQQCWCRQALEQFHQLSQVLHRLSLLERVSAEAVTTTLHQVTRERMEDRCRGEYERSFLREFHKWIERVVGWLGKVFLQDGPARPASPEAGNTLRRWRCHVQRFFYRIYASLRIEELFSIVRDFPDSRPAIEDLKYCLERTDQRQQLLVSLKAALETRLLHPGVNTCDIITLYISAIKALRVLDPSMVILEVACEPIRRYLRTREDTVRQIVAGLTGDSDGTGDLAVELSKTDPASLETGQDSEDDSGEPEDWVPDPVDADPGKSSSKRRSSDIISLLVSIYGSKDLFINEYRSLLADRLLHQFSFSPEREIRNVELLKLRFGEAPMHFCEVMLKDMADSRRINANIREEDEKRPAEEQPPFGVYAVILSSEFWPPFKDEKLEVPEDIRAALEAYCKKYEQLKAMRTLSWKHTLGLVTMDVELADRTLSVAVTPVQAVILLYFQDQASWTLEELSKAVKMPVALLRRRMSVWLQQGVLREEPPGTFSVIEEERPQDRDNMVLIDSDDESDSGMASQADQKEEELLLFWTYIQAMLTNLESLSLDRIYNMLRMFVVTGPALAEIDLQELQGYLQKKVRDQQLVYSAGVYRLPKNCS

Row | SMILES | PAD Assay, HELA 6 pt (HeLa cells) | APC Flag 8 pt [1] | PAD Assay, A549 6 pt (A549 cells) | APC Flag (2 pt) ([1]; 2 concentrations tested)
1 | O=[N+]([O-])c1ccc(Oc2c(Cl)cc(S(=O)(=O)Nc3cc(F)c(F)cc3F)cc2Cl)c(Cl)c1 [Example 199, 3,5-dichloro-4-(2-chloro-4-nitrophenoxy)-N-(2,4,5-trifluorophenyl)benzenesulfonamide] | + | + | + | 
2 | O=S(=O)(Nc1ccc(Oc2ccc(Cl)cc2)cc1)c1cc(Cl)ccc1Cl [Example 276, 2,5-dichloro-N-[4-(4-chlorophenoxy)phenyl]benzenesulfonamide] | − | + | + | 
3 | O=[N+]([O-])c1ccc(Oc2ccc(S(=O)(=O)Nc3ccc(F)cc3C(F)(F)F)cc2Cl)c(C(F)(F)F)c1 [Example 266, 3-chloro-N-[4-fluoro-2-(trifluoromethyl)phenyl]-4-[4-nitro-2-(trifluoromethyl)phenoxy]benzenesulfonamide] | + | + | + | 
4 | Cc1ccc(F)cc1NS(=O)(=O)c1cc(Cl)c(Oc2ccc([N+](=O)[O-])cc2Cl)c(Cl)c1 [Compound 242, 3,5-dichloro-4-(2-chloro-4-nitrophenoxy)-N-(5-fluoro-2-methylphenyl)benzene sulfonamide] | + | + | + | 
5 | Cc1ccc(C(F)(F)F)cc1NS(=O)(=O)c1cc(Cl)c(Oc2ccc([N+](=O)[O-])cc2Cl)c(Cl)c1 [Example 229, 3,5-dichloro-4-(2-chloro-4-nitrophenoxy)-N-[2-methyl-5-(trifluoromethyl)phenyl] benzenesulfonamide] | + | + | + | 
6 | O=S(=O)(Nc1ccc(Oc2ccc(F)cc2)c(Br)c1)c1cccc(Cl)c1 [Compound 282, N-[3-bromo-4-(4-fluorophenoxy)phenyl]-3-chlorobenzenesulfonamide] | − | + | + | 
7 | O=S(=O)(Nc1ccc(Oc2cc(C(F)(F)F)ccc2Cl)cc1F)c1ccc(F)cc1 [Example 286, N-{4-[2-chloro-5-(trifluoromethyl)phenoxy]-2-fluorophenyl)-4-fluorobenzenesulfonamide] | + | + | + | 
8 | Cc1c(F)cccc1NS(=O)(=O)c1cc(Cl)c(Oc2ccc([N+](=O)[O-])cc2Cl)c(Cl)c1 [Example 234, 3,5-dichloro-4-(2-chloro-4-nitrophenoxy)-N-(3-fluoro-2-methylphenyl)benzene-sulfonamide] | + | + | + | 
9 | O=[N+]([O-])c1ccc(Oc2c(Cl)cc(S(=O)(=O)Nc3c(F)cccc3F)cc2Cl)c(Cl)c1 [Example 238, 3,5-dichloro-4-(2-chloro-4-nitrophenoxy)-N-(2,6-difluorophenyl)benzenesulfonamide] | + | + | + | 
10 | O=[N+]([O-])c1ccc(Oc2ccc(NS(=O)(=O)c3cccc(Cl)c3)cc2)cc1 [Example 275, 3-chloro-N-[4-(4-nitrophenoxy)phenyl] benzenesulfonamide] | − | + | + | 
11 | O=[N+]([O-])c1ccc(Oc2ccc(S(=O)(=O)Nc3cc(Cl)ccc3C(F)(F)F)cc2Cl)c(C(F)(F)F)c1 [Compound 267, 3-chloro-N-[5-chloro-2-(trifluoromethyl)phenyl]-4-[4-nitro-2-(trifluoromethyl)phenoxy]benzenesulfonamide] | + | + | + | 
12 | O=S(=O)(Nc1ccc(F)c(Cl)c1)c1ccc(Oc2ncc(C(F)(F)F)cc2Cl)cc1 [Example 256, N-(3-chloro-4-fluorophenyl)-4-{[3-chloro-5-(trifluoromethyl)pyridin-2-yl]oxy}benzene-sulfonamide] | + | + | + | 
13 | O=S(=O)(Nc1ccc(Oc2ccc(F)cc2)c(Br)c1)c1cc(Cl)ccc1Cl [Example 278, N-[3-bRomo-4-(4-fluorophenoxy)phenyl]-2,5-dichlorobenzenesulfonamide] | + | + | + | 
14 | Cc1cc2cc(NS(=O)(=O)c3cc(Cl)c(Oc4ccc([N+](=O)[O-])cc4Cl)c(Cl)c3)ccc2[nH]1 [Compound 244, 3,5-dichloro-4-(2-chloro-4-nitrophenoxy)-N-(2-methyl-1H-indol-5-yl)benzene sulfonamide] | + | + | + | 
15 | O=[N+]([O-])c1ccc(Oc2ccc(S(=O)(=O)Nc3cccc(Br)c3)cc2Cl)c(C(F)(F)F)c1 [Example 270, N-(3-bRomophenyl)-3-chloro-4-[4-nitro-2-(trifluoromethyl)phenoxy]benzenesulfonamide] | + | + | + | 
16 | O=S(=O)(Nc1cc(Cl)ccc1C(F)(F)F)c1ccc(Oc2ncc(C(F)(F)F)cc2Cl)cc1 [Compound 272, N-[5-chloro-2-(trifluoromethyl)phenyl]-4-{[3-chloro-5-(trifluoromethyl)pyridin-2-yl]oxy}benzenesulfonamide] | + | + | + | 
17 | O=[N+]([O-])c1ccc(Oc2ccc(S(=O)(=O)Nc3ccc(C(F)(F)F)cc3Cl)cc2Cl)c(C(F)(F)F)c1 [Compound 265, 3-chloro-N-[2-chloro-4-(trifluoromethyl)phenyl]-4-[4-nitro-2-(trifluoromethyl)phenoxy]benzenesulfonamide] | + | + | + | 
18 | O=[N+]([O-])c1ccc(Oc2c(Cl)cc(S(=O)(=O)Nc3c(F)cc(F)cc3F)cc2Cl)c(Cl)c1 [Example 241, 3,5-dichloro-4-(2-chloro-4-nitrophenoxy)-N-(2,4,6-trifluorophenyl)benzenesulfonamide] | + | + | + | 
19 | O=[N+]([O-])c1ccc(Oc2c(Cl)cc(S(=O)(=O)Nc3ccc(C(F)(F)F)cc3Cl)cc2Cl)c(Cl)c1 [Compound 240, 3,5-dichloro-4-(2-chloro-4-nitrophenoxy)-N-[2-chloro-4-(trifluoromethyl)phenyl]benzenesulfonamide] | + | + | + | 
20 | O=S(=O)(Nc1cccc2cnccc12)c1cc(Cl)c(Oc2ccc(Cl)cc2Cl)c(Cl)c1 [Example 246, 3,5-dichloro-4-(2,4-dichlorophenoxy)-N-isoquinolin-5-ylbenzenesulfonamide] | + | + | + | 
21 | O=[N+]([O-])c1ccc(Oc2c(Cl)cc(S(=O)(=O)Nc3cc(F)ccc3F)cc2Cl)c(Cl)c1 [Example 237, 3,5-dichloro-4-(2-chloro-4-nitrophenoxy)-N-(2,5-difluorophenyl)benzenesulfonamide] | + | + | + | 
22 | O=S(=O)(Nc1cc(F)ccc1F)c1ccc(Oc2ncc(C(F)(F)F)cc2Cl)cc1 [Example 269, 4-{[3-chloro-5-(trifluoromethyl)pyridin-2-yl]oxy}-N-(2,5-difluorophenyl)benzene-sulfonamide] | − | + | − | 
23 | Cc1cc(NS(=O)(=O)c2cc(Cl)c(Oc3ccc([N+](=O)[O-])cc3Cl)c(Cl)c2)no1 [Example 217, 3,5-dichloro-4-(2-chloro-4-nitrophenoxy)-N-(5-methylisoxazol-3-yl)benzenesulfonamide] | − |  | − | − (2 pt)

Reference: patent US7915293B2, “Ubiquitin ligase inhibitors” (Rigel Pharmaceuticals, Inc., priority 2003, dated 2011)
